Measured values: ChEMBL document CHEMBL3039007, “Structure-based identification of OATP1B1/3 inhibitors” (Mol Pharmacol, 2013)

What was measured:
[1] = biological target: T1, Solute carrier organic anion transporter family member 1B1 (Homo sapiens, UniProt Q9Y6L6); conditions: chinese hamster, cho, 10 µM
T1 sequence (Q9Y6L6 whole entry): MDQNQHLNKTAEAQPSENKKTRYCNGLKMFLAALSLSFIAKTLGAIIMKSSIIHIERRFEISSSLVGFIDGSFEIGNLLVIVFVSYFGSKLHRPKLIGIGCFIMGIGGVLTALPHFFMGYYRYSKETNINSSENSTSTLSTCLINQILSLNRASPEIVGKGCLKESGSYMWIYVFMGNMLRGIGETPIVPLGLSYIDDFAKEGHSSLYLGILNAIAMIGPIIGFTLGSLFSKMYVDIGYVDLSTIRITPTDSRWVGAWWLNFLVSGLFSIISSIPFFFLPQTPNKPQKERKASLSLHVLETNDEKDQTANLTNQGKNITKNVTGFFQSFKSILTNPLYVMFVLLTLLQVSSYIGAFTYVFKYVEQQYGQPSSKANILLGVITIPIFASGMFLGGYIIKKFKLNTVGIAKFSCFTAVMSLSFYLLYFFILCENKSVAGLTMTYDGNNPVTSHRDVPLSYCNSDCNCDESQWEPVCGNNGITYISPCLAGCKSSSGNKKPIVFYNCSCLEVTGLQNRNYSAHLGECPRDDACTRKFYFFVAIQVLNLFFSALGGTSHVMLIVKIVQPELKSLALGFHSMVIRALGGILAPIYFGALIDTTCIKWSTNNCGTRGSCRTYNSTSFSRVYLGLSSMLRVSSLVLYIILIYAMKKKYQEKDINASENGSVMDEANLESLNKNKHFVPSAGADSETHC

[2] = biological target: T2, Solute carrier organic anion transporter family member 1B3 (Homo sapiens, UniProt Q9NPD5); conditions: chinese hamster, cho, 10 µM
T2 sequence (Q9NPD5 whole entry): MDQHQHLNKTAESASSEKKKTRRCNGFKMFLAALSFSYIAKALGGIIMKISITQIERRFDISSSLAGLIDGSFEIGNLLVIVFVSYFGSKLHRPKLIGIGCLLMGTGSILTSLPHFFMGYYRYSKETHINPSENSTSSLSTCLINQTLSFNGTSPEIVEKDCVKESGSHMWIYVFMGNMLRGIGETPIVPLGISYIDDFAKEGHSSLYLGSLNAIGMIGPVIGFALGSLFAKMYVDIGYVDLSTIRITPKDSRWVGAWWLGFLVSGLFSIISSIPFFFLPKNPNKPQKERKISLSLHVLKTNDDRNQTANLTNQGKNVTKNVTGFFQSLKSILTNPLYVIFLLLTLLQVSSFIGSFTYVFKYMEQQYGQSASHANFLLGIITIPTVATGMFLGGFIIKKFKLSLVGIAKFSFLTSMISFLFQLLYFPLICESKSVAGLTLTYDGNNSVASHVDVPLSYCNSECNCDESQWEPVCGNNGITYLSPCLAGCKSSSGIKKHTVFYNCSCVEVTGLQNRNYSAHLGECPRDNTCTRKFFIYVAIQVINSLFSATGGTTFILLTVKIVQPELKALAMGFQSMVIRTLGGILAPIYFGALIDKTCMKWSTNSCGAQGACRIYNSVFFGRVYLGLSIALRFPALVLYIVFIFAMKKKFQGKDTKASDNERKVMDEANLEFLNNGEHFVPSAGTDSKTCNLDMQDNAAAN

Structure (SMILES) | residual activity [1] [%] | residual activity [2] [%]
N[C@H](Cc1ccccc1)C(=O)O [D-PHENYLALANINE] | 73.08 | 84.71
OCCN1CCN(CCCN2c3ccccc3Sc3ccc(Cl)cc32)CC1 [PERPHENAZINE] | 130 | 113.3
CC(C)Cc1ccc(C(C)C(=O)O)cc1 (stereo not drawn) [IBUPROFEN] | 111.7 | 98.25
OCc1c[nH]c2ccccc12 [INDOLE-3-CARBINOL] | 88.32 | 121.9
CCCCCCCCCCC[C@@H](C[C@@H]1OC(=O)[C@H]1CCCCCC)OC(=O)[C@H](CC(C)C)NC=O [ORLISTAT] | 85.27 | 84.62
O=c1cc[nH]c(=S)[nH]1 [THIOURACIL] | 95.34 | 77.62
CCN(CC)CCCC(C)Nc1c2ccc(Cl)cc2nc2ccc(OC)cc12.Cl.Cl.O.O (stereo not drawn) [QUINACRINE HYDROCHLORIDE] | 83.49 | 95.69
CC(C)=CCc1c2c(c(O)c3c(=O)c(O)c(-c4ccccc4)oc13)C=CC(C)(C)O2 [SERICETIN] | 89.94 | 98.26
C[C@H](N)[C@H](O)c1ccc(O)c(O)c1 [LEVONORDEFRIN] | 58.62 | 80.26
CCCC(=O)O[C@]1(C(=O)CO)CC[C@H]2[C@@H]3CCC4=CC(=O)CC[C@]4(C)[C@H]3[C@@H](O)C[C@@]21C [HYDROCORTISONE BUTYRATE] | 100.3 | 98.06
CCN(CC)CCOC(=O)C(Cc1cccc2ccccc12)CC1CCCO1.O=C(O)C(=O)O (stereo not drawn) [NAFRONYL OXALATE] | 74.24 | 116.5
Nc1ccc(C(=O)O)cc1 [AMINOBENZOIC ACID] | 85.02 | 88.18
O=C(/C=C/c1ccc(O)c(O)c1)O[C@H](Cc1ccc(O)c(O)c1)C(=O)O [ROSMARINIC ACID] | 103.9 | 102.5
Cc1cc(O)ccc1Cl [CHLOROCRESOL] | 119.6 | 91.23
OC[C@H]1O[C@@H](O[C@@H]2[C@@H](CO)O[C@](O)(CO)[C@H]2O)[C@H](O)[C@@H](O)[C@H]1O [LACTULOSE] | 90.31 | 104.9
Cc1cc(O)c2c(c1)C(=O)c1cccc(O)c1C2=O [CHRYSOPHANOL] | 128.6 | 93.35
NC1=NCCN1CC(=O)O [CYCLOCREATINE] | 108.2 | 127.5
CC(C)Oc1ccc2c(=O)c(-c3ccccc3)coc2c1 [IPRIFLAVONE] | 137.7 | 84.86
CC(=O)C1=C(O)C=C2Oc3c(C(C)=O)c(O)c(C)c(O)c3[C@@]2(C)C1=O [(+)-USNIC ACID] | 31.05 | 69.13
CC(NCCc1ccc(O)cc1)C(O)c1ccc(O)cc1.Cl (stereo not drawn) [RITODRINE HYDROCHLORIDE] | 125.6 | 112.7
N[C@@H]1C[C@H]1c1ccccc1.N[C@H]1C[C@@H]1c1ccccc1.O=S(=O)(O)O [TRANYLCYPROMINE SULFATE] | 73.89 | 84.19
O=C(Oc1cc(O)cc2c1C[C@@H](OC(=O)c1cc(O)c(O)c(O)c1)[C@@H](c1cc(O)c(O)c(O)c1)O2)c1cc(O)c(O)c(O)c1 [EPIGALLOCATECHIN 3,5-DIGALLATE] | 55.31 | 82.14

Structure (SMILES) | residual activity [1] [%] | residual activity [2] [%]
COc1cc2c(cc1OC)-c1cc3ccc(OC)c(OC)c3c[n+]1CC2 [PALMITINE] | 78.6 | 102.6
Oc1ccc([C@H]2Oc3cc(O)cc(O)c3C[C@H]2O)cc1 [EPIAFZELECHIN (2R,3R)(-)] | 48.25 | 26.68
CCCCCCCCCCCCCCCCCCOCC(O)CO (stereo not drawn) [BATILOL] | 92.94 | 108.3
Cn1c(=O)[nH]c2nc[nH]c2c1=O [1-METHYLXANTHINE] | 102.1 | 96.5
N=C(N)NC(=O)c1nc(Cl)c(N2CCCCCC2)nc1N [N,N-HEXAMETHYLENEAMILORIDE] | 122.5 | 162.9
COc1ccc(CC(=O)c2ccc(O)cc2O)cc1 [ONONETIN] | 149.8 | 96.22
CC(C)COCC(CN(Cc1ccccc1)c1ccccc1)N1CCCC1.Cl.O (stereo not drawn) [BEPRIDIL HYDROCHLORIDE] | 124.1 | 131.3
C[C@H]1CC[C@]2(NC1)O[C@H]1C[C@H]3[C@@H]4CC[C@H]5C[C@@H](O)CC[C@]5(C)[C@H]4CC[C@]3(C)[C@H]1[C@@H]2C.Cl | 108.8 | 99.59
CCC(=O)O[C@H]1CC[C@H]2[C@@H]3CCC4=CC(=O)CC[C@]4(C)[C@H]3CC[C@]12C [TESTOSTERONE PROPIONATE] | 121 | 133.5
N=C(N)N [GUANIDINE] | 106.5 | 100
CCC(C)C(=O)O[C@@H]1C[C@]2(C)[C@H](c3ccoc3)OC(=O)CC23OC2(C)OC34[C@H](OC(=O)C(C)C)[C@@]3(O)[C@@H](OC(=O)[C@]5(C)O[C@H]5C)[C@]5(C)C[C@@]3(O)[C@@](C)([C@H]5CC(=O)OC)C14O2 (stereo partly drawn) | -0.3887 | 0.6163
OC(c1cc(C(F)(F)F)nc2c(C(F)(F)F)cccc12)C1CCCCN1 (stereo not drawn) [MEFLOQUINE] | 161.6 | 112.7
COC(=O)c1c(OC)cc2c(c1C)Oc1c(Cl)c(OC(C)=O)c(Cl)c(C)c1C(=O)O2 [GANGLEOIDIN ACETATE] | 34.6 | 54.62
Cl.c1cncc([C@@H]2CCCCN2)c1 [ANABASINE HYDROCHLORIDE] | 83.96 | 91.54
CCNc1nc(Cl)nc(NC(C)C)n1 [ATRAZINE] | 133.8 | 96.21
COC1=CC(=O)C(O)=C/C1=C\C=C\c1ccccc1 [OBTUSAQUINONE] | 60.32 | 88.38
CC[C@H](C)C(=O)O[C@H]1C[C@H](O)C=C2C=C[C@H](C)[C@H](CC[C@@H](O)C[C@@H](O)CC(=O)[O-])[C@H]21.[Na+] [PRAVASTATIN SODIUM] | 100.3 | 102.8
CO[C@]12C[C@@H](COC(=O)c3cncc(Br)c3)CN(C)[C@@H]1Cc1cn(C)c3cccc2c13 [NICERGOLINE] | 91.22 | 124.1
CCN(CC)CCOC(=O)C1(C2CCCCC2)CCCCC1.Cl [DICYCLOMINE HYDROCHLORIDE] | 106.9 | 105.3
O=[N+]([O-])c1cc([As](=O)(O)O)ccc1O [ROXARSONE] | 82.84 | 90.61
Nc1ccccc1C(=O)CC(N)C(=O)O (stereo not drawn) [KYNURENINE] | 58.07 | 67.15
CCC(=O)OC1[C@@H]2CC3=C4CC(=O)O[C@@H](c5ccoc5)[C@]4(C)CCC3[C@@](C)(C2=O)[C@@H](CC(=O)OC)C1(C)C (stereo partly drawn) [KHAYASIN C] | 59.29 | 67.18
